# Measured values from patent US8802597B2, “Herbicidal pyrimidines” (E I du Pont de Nemours and Company, priority 2003, dated 2014).
# How the values were obtained:
# Format in all cases: in vivo
# [1] = tested on: giant foxtail (Setaria faberi); experiment: Test A pre/postemergence
# Outline: (§1)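 Visual injury scored 0–100 (0 = no effect, 100 = complete control) against untreated controls after about ten days in the greenhouse. Compounds, formulated in non-phytotoxic solvent plus surfactant, were applied preemergence as a directed soil spray and postemergence at the 1- to 2-leaf stage (2–10 cm).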
# [2] = tested on: crabgrass (Digitaria sanguinalis); experiment: Test A pre/postemergence
# Outline: as §1
# [3] = tested on: redroot pigweed (Amaranthus retroflexus); experiment: Test A pre/postemergence
# Outline: as §1
# [4] = tested on: morningglory (Ipomoea spp.); experiment: Test A pre/postemergence
# Outline: as §1
# [5] = tested on: barnyardgrass (Echinochloa crus-galli); experiment: Test A pre/postemergence
# Outline: as §1
# [6] = tested on: velvetleaf (Abutilon theophrasti); experiment: Test A pre/postemergence
# Outline: as §1
# [7] = tested on: early watergrass (Echinochloa oryzoides); experiment: Test E flooded paddy water application; conditions: Flood, 21 days, scale 0 to 100 (0 no effect, 100 complete control)
# Source text: (§2) Three plastic pots (ca. 16-cm diameter) per rate were partially filled with sterilized Tama silt loam soil comprising a 35:50:15 ratio of sand, silt and clay and 2.6% organic matter. Separate plantings for each of the three pots were as follows. Seeds from the U.S. of ducksalad (Heteranthera limosa), smallflower umbrella sedge (Cyperus difformis) and purple redstem (Ammannia coccinea), were planted into one 16-cm pot for each rate. Seeds from the U.S. of rice flatsedge (Cyperus iria), bearded (brdd.) sprangletop (Leptochloa fusca ssp. fascicularis), one stand of 9 or 10 water seeded rice seedlings (Oryza sativa cv. ‘Japonica-M202’), and one stand of 6 transplanted rice seedlings (Oryza sativa cv. ‘Japonica-M202’) were planted into one 16-cm pot for each rate. Seeds from the U.S. of barnyardgrass (Echinochloa crus-galli), late watergrass (Echinochloa oryzicola), early watergrass (Echinochloa oryzoides) and junglerice (Echinochloa colona) were planted into one 16-cm pot for each rate. Plantings were sequential so that crop and weed species were at the 2.0 to 2.5-leaf stage at time of treatment.
# (§3) Potted plants were grown in a greenhouse with day/night temperature settings of 29.5/26.7° C., and supplemental balanced lighting was provided to maintain a 16-hour photoperiod. Test pots were maintained in the greenhouse until test completion.
# (§4) At time of treatment, test pots were flooded to 3 cm above the soil surface, treated by application of test compounds directly to the paddy water, and then maintained at that water depth for the duration of the test. Effects of treatments on rice and weeds were visually evaluated by comparison to untreated controls after 21 days. Plant response ratings, summarized in Table E, are based on a scale of 0 to 100 where 0 is no effect and 100 is complete control. A dash (-) response means no test result.
# [8] = tested on: junglerice (Echinochloa colona); experiment: Test E flooded paddy water application; conditions: Flood, 21 days, scale 0 to 100 (0 no effect, 100 complete control)
# Source text: as §2, §3, §4
# [9] = tested on: water seeded rice seedlings (Oryza sativa cv. ‘Japonica-M202’); experiment: Test E flooded paddy water application; conditions: Flood, 21 days, scale 0 to 100 (0 no effect, 100 complete control)
# Source text: as §2, §3, §4
# [10] = tested on: rice flatsedge (Cyperus iria); experiment: Test E flooded paddy water application; conditions: Flood, 21 days, scale 0 to 100 (0 no effect, 100 complete control)
# Source text: as §2, §3, §4
# [11] = tested on: transplanted rice seedlings (Oryza sativa cv. ‘Japonica-M202’); experiment: Test E flooded paddy water application; conditions: Flood, 21 days, scale 0 to 100 (0 no effect, 100 complete control)
# Source text: as §2, §3, §4
# [12] = tested on: bearded (brdd.) sprangletop (Leptochloa fusca ssp. fascicularis); experiment: Test E flooded paddy water application; conditions: Flood, 21 days, scale 0 to 100 (0 no effect, 100 complete control)
# Source text: as §2, §3, §4
# [13] = tested on: smallflower umbrella sedge (Cyperus difformis); experiment: Test E flooded paddy water application; conditions: Flood, 21 days, scale 0 to 100 (0 no effect, 100 complete control)
# Source text: as §2, §3, §4
# [14] = tested on: purple redstem (Ammannia coccinea); experiment: Test E flooded paddy water application; conditions: Flood, 21 days, scale 0 to 100 (0 no effect, 100 complete control)
# Source text: as §2, §3, §4
# [15] = tested on: ducksalad (Heteranthera limosa); experiment: Test E flooded paddy water application; conditions: Flood, 21 days, scale 0 to 100 (0 no effect, 100 complete control)
# Source text: as §2, §3, §4
# [16] = tested on: late watergrass (Echinochloa oryzicola); experiment: Test E flooded paddy water application; conditions: Flood, 21 days, scale 0 to 100 (0 no effect, 100 complete control)
# Source text: as §2, §3, §4
# [17] = Postemergence, 125 g ai/ha, 0 to 100 scale (0 no effect, 100 complete control)
# [18] = Postemergence, 500 g ai/ha, 0 to 100 scale (0 no effect, 100 complete control)
# [19] = Preemergence, 125 g ai/ha, 0 to 100 scale where 0 is no effect and 100 is complete control, approximately ten days
# [20] = Preemergence, 500 g ai/ha, 0 to 100 scale where 0 is no effect and 100 is complete control, approximately ten days
structure (smiles),measurement,setting,value
CCOC(=O)c1nc(-c2ccc(F)cc2)nc(N)c1Br [Compound 63],"Plant response rating, Foxtail, Giant",[1]; [17],0
same,"Plant response rating, Foxtail, Giant",[1]; [18],0
same,"Plant response rating, Foxtail, Giant",[1]; [19],0
same,"Plant response rating, Foxtail, Giant",[1]; [20],35
same,"Plant response rating, Crabgrass",[2]; [17],0
same,"Plant response rating, Crabgrass",[2]; [18],0
same,"Plant response rating, Crabgrass",[2]; [19],0
same,"Plant response rating, Crabgrass",[2]; [20],75
same,"Plant response rating, Pigweed",[3]; [17],40
same,"Plant response rating, Pigweed",[3]; [18],65
same,"Plant response rating, Pigweed",[3]; [19],0
same,"Plant response rating, Pigweed",[3]; [20],80
same,"Plant response rating, Morningglory",[4]; [17],20
same,"Plant response rating, Morningglory",[4]; [18],25
same,"Plant response rating, Morningglory",[4]; [19],0
same,"Plant response rating, Morningglory",[4]; [20],0
same,"Plant response rating, Barnyardgrass",[5]; [17],0
same,"Plant response rating, Barnyardgrass",[5]; [18],0
same,"Plant response rating, Barnyardgrass",[5]; [19],0
same,"Plant response rating, Barnyardgrass",[5]; [20],40
same,"Plant response rating, Velvetleaf",[6]; [17],55
same,"Plant response rating, Velvetleaf",[6]; [18],70
same,"Plant response rating, Velvetleaf",[6]; [19],0
same,"Plant response rating, Velvetleaf",[6]; [20],15
same,"Watergrass, Early plant response rating",[7]; 32 g ai/ha,0
same,"Watergrass, Early plant response rating",[7]; 64 g ai/ha,0
same,"Watergrass, Early plant response rating",[7]; 125 g ai/ha,0
same,"Watergrass, Early plant response rating",[7]; 250 g ai/ha,0
same,"Plant response rating, Watergrass, Early",[7]; 16 g ai/ha,0
same,Junglerice plant response rating,[8]; 32 g ai/ha,0
same,Junglerice plant response rating,[8]; 64 g ai/ha,0
same,Junglerice plant response rating,[8]; 125 g ai/ha,0
same,Junglerice plant response rating,[8]; 250 g ai/ha,30
same,"Plant response rating, Junglerice",[8]; 16 g ai/ha,0
same,"Rice, Water Seeded plant response rating",[9]; 32 g ai/ha,0
same,"Rice, Water Seeded plant response rating",[9]; 64 g ai/ha,0
same,"Rice, Water Seeded plant response rating",[9]; 125 g ai/ha,20
same,"Rice, Water Seeded plant response rating",[9]; 250 g ai/ha,30
same,"Plant response rating, Rice, Water Seeded",[9]; 16 g ai/ha,0
same,"Flatsedge, Rice plant response rating",[10]; 32 g ai/ha,75
same,"Flatsedge, Rice plant response rating",[10]; 64 g ai/ha,75
same,"Flatsedge, Rice plant response rating",[10]; 125 g ai/ha,85
same,"Flatsedge, Rice plant response rating",[10]; 250 g ai/ha,85
same,"Plant response rating, Flatsedge, Rice",[10]; 16 g ai/ha,60
same,"Rice, Transplanted plant response rating",[11]; 32 g ai/ha,0
same,"Rice, Transplanted plant response rating",[11]; 64 g ai/ha,0
same,"Rice, Transplanted plant response rating",[11]; 125 g ai/ha,0
same,"Rice, Transplanted plant response rating",[11]; 250 g ai/ha,0
same,"Plant response rating, Rice, Transplanted",[11]; 16 g ai/ha,0
same,"Sprangletop, Brdd. plant response rating",[12]; 32 g ai/ha,0
same,"Sprangletop, Brdd. plant response rating",[12]; 64 g ai/ha,40
same,"Sprangletop, Brdd. plant response rating",[12]; 125 g ai/ha,40
same,"Sprangletop, Brdd. plant response rating",[12]; 250 g ai/ha,65
same,"Plant response rating, Sprangletop, Brdd.",[12]; 16 g ai/ha,0
same,"Sedge, Umbrella plant response rating",[13]; 32 g ai/ha,75
same,"Sedge, Umbrella plant response rating",[13]; 64 g ai/ha,75
same,"Sedge, Umbrella plant response rating",[13]; 125 g ai/ha,75
same,"Sedge, Umbrella plant response rating",[13]; 250 g ai/ha,80
same,"Plant response rating, Sedge, Umbrella",[13]; 16 g ai/ha,70
same,Redstem plant response rating,[14]; 32 g ai/ha,65
same,Redstem plant response rating,[14]; 64 g ai/ha,65
same,Redstem plant response rating,[14]; 125 g ai/ha,75
same,Redstem plant response rating,[14]; 250 g ai/ha,75
same,"Plant response rating, Redstem",[14]; 16 g ai/ha,65
same,Ducksalad plant response rating,[15]; 32 g ai/ha,30
same,Ducksalad plant response rating,[15]; 64 g ai/ha,65
same,Ducksalad plant response rating,[15]; 125 g ai/ha,100
same,Ducksalad plant response rating,[15]; 250 g ai/ha,100
same,"Plant response rating, Ducksalad",[15]; 16 g ai/ha,30
same,"Watergrass, Late plant response rating",[16]; 32 g ai/ha,0
same,"Watergrass, Late plant response rating",[16]; 64 g ai/ha,0
same,"Watergrass, Late plant response rating",[16]; 125 g ai/ha,0
same,"Watergrass, Late plant response rating",[16]; 250 g ai/ha,0
same,"Plant response rating, Watergrass, Late",[16]; 16 g ai/ha,0
